# Experimental data reported in US9388151B2, “Methods for producing 5-(halomethyl) furfural” (MICROMIDAS, INC., priority 2012, dated 2016).
# Procedure: The amount of solvent and CMF used are detailed in Table 1.
# Once the vials were filled and sealed, each vial was held at the temperatures listed in Table 1 above for 20-30 minutes, at which time a sample was taken and analyzed by HPLC.
# An aliquot was analyzed by HPLC. The following HPLC protocol was used. The column was an Agilent Technologies RX-Sil silica column; 4.6×100 mm packed with 1.8 micron silica beads. Column temperature was maintained at 50° C. Injection volume was 1.0 microliter. Mobile phase composition was 80% hexane and 20% tetrahydrofuran flowing at 1.0 mL/min.
row,Structure (SMILES),solubility for CMF
1,CCCCC [Pentane],relatively low solubility
2,CCCCCCCCCCCCCCCCCCCC [Eicosane],relatively low solubility
3,CCCCCCCCCC [Decane],relatively low solubility
4,Clc1ccccc1 [Chlorobenzene],relatively soluble
5,CCCCCC [Hexane],relatively low solubility
6,CCCCCCCCCCCCCC [Tetradecane],relatively low solubility
